Assay in all cases: Post-emergence efficacy, glasshouse spray test
What all share (type): in vivo

Test [1] deals with Chenopodium album (CHEAL). The conditions noted are these: Chenopodium album, post-emergence, 312 h, evaluated after 13 days, read-out: Control of weed species after post-emergence application, CHEAL (100=total damage to plant; 0=no damage to plant); for pest or weed control at 500 g/ha: Application Rate 500 g/Ha; for pest or weed control at 125 g/ha: Application Rate 125 g/Ha. Here is the method:
(§1) Seeds of a variety of test species were sown in standard soil in pots. After cultivation for 14 days (post-emergence) under controlled conditions in a glasshouse (at 24/16° C. day/night; 14 hours light; 65% humidity), the plants were sprayed with an aqueous spray solution derived from the dissolution of the technical active ingredient formula (I) in a small amount of acetone and a special solvent and emulsifier mixture referred to as IF50 (11.12% Emulsogen EL360 TM+44.44% N-methyl pyrrolidone+44.44% Dowanol DPM glycolether), to create a 50 g/l solution which was then diluted to required concentration using 0.25% or 1% Empicol ESC70 (Sodium lauryl ether sulphate)+1% ammonium sulphate as diluent. The test plants were then grown in a glasshouse under controlled conditions (at 24/16° C., day/night; 14 hours light; 65% humidity) and watered twice daily. After 13 days the test was evaluated (100=total damage to plant; 0=no damage to plant).
(§2) Ipomoea hederacea (IPOHE), Euphorbia heterophylla (EPHHL), Chenopodium album (CHEAL), Amaranthus palmeri (AMAPA), Lolium perenne (LOLPE), Digitaria sanguinalis (DIGSA), Eleusine indica (ELEIN), Echinochloa crus-galli (ECHCG), Setaia fabei (SETFA)

The subject of test [2] is Amaranthus palmeri (AMAPA). The conditions noted are these: Amaranthus palmeri, post-emergence, 312 h, evaluated after 13 days, read-out: Control of weed species after post-emergence application, AMAPA (100=total damage to plant; 0=no damage to plant); for pest or weed control at 500 g/ha: Application Rate 500 g/Ha; for pest or weed control at 125 g/ha: Application Rate 125 g/Ha. Here is the method:
as §1, §2

Test [3] concerns Ipomoea hederacea (IPOHE). The note with it: Ipomoea hederacea, post-emergence, 312 h, evaluated after 13 days, read-out: Control of weed species after post-emergence application, IPOHE (100=total damage to plant; 0=no damage to plant); for pest or weed control at 500 g/ha: Application Rate 500 g/Ha; for pest or weed control at 125 g/ha: Application Rate 125 g/Ha. Here is the method:
as §1, §2

Test [4] concerns Digitaria sanguinalis (DIGSA). The note with it: Digitaria sanguinalis, post-emergence, 312 h, evaluated after 13 days, read-out: Control of weed species after post-emergence application, DIGSA (100=total damage to plant; 0=no damage to plant); for pest or weed control at 500 g/ha: Application Rate 500 g/Ha; for pest or weed control at 125 g/ha: Application Rate 125 g/Ha. Here is the method: as §1, §2

For test [5], the system named is Echinochloa crus-galli (ECHCG). The conditions noted are these: Echinochloa crus-galli, post-emergence, 312 h, evaluated after 13 days, read-out: Control of weed species after post-emergence application, ECHCG (100=total damage to plant; 0=no damage to plant); for pest or weed control at 500 g/ha: Application Rate 500 g/Ha; for pest or weed control at 125 g/ha: Application Rate 125 g/Ha. As for the experimental part:
as §1, §2

Test [6] concerns Setaia fabei (SETFA). The note with it: Setaria faberi, post-emergence, 312 h, evaluated after 13 days, read-out: Control of weed species after post-emergence application, SETFA (100=total damage to plant; 0=no damage to plant); for pest or weed control at 500 g/ha: Application Rate 500 g/Ha; for pest or weed control at 125 g/ha: Application Rate 125 g/Ha. Here is the method:
as §1, §2

Test [7] has as its system Lolium perenne (LOLPE). The note with it: Lolium perenne, post-emergence, 312 h, evaluated after 13 days, read-out: Control of weed species after post-emergence application, LOLPE (100=total damage to plant; 0=no damage to plant); for pest or weed control at 500 g/ha: Application Rate 500 g/Ha; for pest or weed control at 125 g/ha: Application Rate 125 g/Ha. As for the experimental part:
as §1, §2

For test [8], the system named is Euphorbia heterophylla (EPHHL). The note with it: Euphorbia heterophylla, post-emergence, 312 h, evaluated after 13 days, read-out: Control of weed species after post-emergence application, EPHHL (100=total damage to plant; 0=no damage to plant); for pest or weed control at 500 g/ha: Application Rate 500 g/Ha; for pest or weed control at 125 g/ha: Application Rate 125 g/Ha. Here is the method:
as §1, §2

Test [9] has as its system Eleusine indica (ELEIN). The conditions noted are these: Eleusine indica, post-emergence, 312 h, evaluated after 13 days, read-out: Control of weed species after post-emergence application, ELEIN (100=total damage to plant; 0=no damage to plant); for pest or weed control at 500 g/ha: Application Rate 500 g/Ha; for pest or weed control at 125 g/ha: Application Rate 125 g/Ha. As for the experimental part: as §1, §2

Where a name gives a salt, the structure may show the parent alone.

Take `O=S(=O)([O-])CC[n+]1ccc(-c2nccs2)cn1` [Compound A1, 2-(4-thiazol-2-ylpyridazin-1-ium-1-yl)ethanesulfonate]: the pest or weed control at 500 g/ha in test [1] worked out at 70%; in test [2] it was 100%; in [3] it was 50%; in test [4], 100%; in test [5] it was 60%; in test [6], 50%. The pest or weed control at 500 g/ha in [7] came to 90%; in [8], 70%; in test [9], 50%.

Take `Cn1ccc(-c2cc[n+](CCS(=O)(=O)[O-])nc2)n1` [Compound A2]: the pest or weed control at 125 g/ha stood at 0% in test [1]; 0% in test [2]; 10% in test [3]; 20% in test [4]; 10% in test [5]; 20% in test [6]. Moreover, the values for the pest or weed control at 125 g/ha in test [7], in [8] and in test [9] were 0%, 30% and 10%, respectively.

Turning to `O=S(=O)([O-])CCC[n+]1ccc(-c2ncco2)cn1` [Compound A3, 3-(4-oxazol-2-ylpyridazin-1-ium-1-yl)propane-1-sulfonate], the pest or weed control at 125 g/ha in test [1] was found to be 60%; in test [2] it was 20%; in test [3], 40%; in test [4], 80%; in test [5], 70%; in [6], 80%. Besides, the pest or weed control at 125 g/ha in test [7] was found to be 20%; in test [8] it was 70%; in [9], 50%.

Take `Cn1nccc1-c1cc[n+](CCCS(=O)(=O)[O-])nc1` [Compound A4]: the pest or weed control at 500 g/ha in test [1] came to 30%; in [2], 10%; in test [3] it was 10%; in test [4], 30%; in [5], 20%; in [6] it was 20%. Also, the pest or weed control at 500 g/ha in test [7] came to 0%; in test [8] it was 40%; in [9], 10%.

With `O=S(=O)([O-])CC[n+]1ccc(-c2ccns2)cn1` [Compound A5], the pest or weed control at 500 g/ha stood at 100% in test [1]; 100% in test [2]; 70% in [3]; 60% in [4]; 70% in test [5]; 60% in test [6]. The results for the pest or weed control at 500 g/ha in test [7], in test [8] and in test [9] were 100%, 100% and 80%, respectively.

For `Cn1ncc(-c2cc[n+](CCS(=O)(=O)[O-])nc2)n1` [Compound A6], the pest or weed control at 500 g/ha in test [1] was 40%; in test [2], 90%; in test [3], 10%; in test [4] it was 60%; in [5], 60%; in test [6], 70%. Further, the pest or weed control at 500 g/ha in test [7] worked out at 60%; in test [8], 20%; in [9], 60%.

Regarding `O=S(=O)([O-])CCC[n+]1ccc(-c2nnco2)cn1` [Compound A7], the pest or weed control at 500 g/ha in test [1] was 0%; in [2] it was 0%; in test [3] it was 10%; in test [4], 30%; in test [5], 10%; in test [6], 10%. Further, the pest or weed control at 500 g/ha in test [7] was 10%; in test [8], 20%; in test [9], 20%.

Take `O=S(=O)([O-])OCC[n+]1ccc(-c2ncno2)cn1` [Compound A8, 2-[4-(1,2,4-oxadiazol-5-yl)pyridazin-1-ium-1-yl]ethyl sulfate]: the pest or weed control at 500 g/ha in test [1] turned out to be 10%; in test [2], 10%; in test [3], 30%; in test [4], 50%; in [5], 50%; in test [6], 40%. Moreover, the values for the pest or weed control at 500 g/ha in test [7], in test [8] and in test [9] were 10%, 30% and 20%, respectively.

Turning to `O=S(=O)([O-])CC[n+]1ccc(-c2ncns2)cn1` [Compound A9], the pest or weed control at 500 g/ha in test [1] is 70%; in [2], 90%; in [3], 80%; in test [4], 70%; in test [5], 60%; in [6] it was 60%. For the same compound, the pest or weed control at 500 g/ha in [7] stood at 30%; in test [8], 90%; in [9], 80%.

With `COC(=O)[C@@H](N)CC[n+]1ccc(-c2ncco2)cn1` [Compound A109], the pest or weed control at 500 g/ha in test [1] came to 90%; in test [2] it was 90%; in [3], 0%; in [6], 90%; in [7], 10%; in [8], 60%.

As for `COC(=O)CCC[n+]1ccc(-c2nccs2)cn1` [Compound A114], the pest or weed control at 500 g/ha turned out to be 60% in test [1]; 100% in test [2]; 10% in [3]; 70% in [4]; 40% in test [5]; 50% in test [6]. The pest or weed control at 500 g/ha came out at 30% in [7] and 90% in test [9].

The values above are taken from US20210053957A1, “HERBICIDAL COMPOUNDS” (SYNGENTA PARTICIPATIONS AG, priority 2018, published 2021).
